# e = 2'-O-(2-methoxyethyl) (MOE); d = 2'-deoxy (DNA)
# Legend:
# Format in all cases: cell-based
# [1] = system: IGFBP-2 or IGFBP-5 (predominant IGFBP); test: Reduction of IGFBP-2 or IGFBP-5 in prostate cancer cell lines in vitro (FIG. 2); conditions: concentrations of 10 nM to 100 nM
# [2] = system: IGFBP-2; test: IGFBP-2 level in V16 samples treated with OGX-225; conditions: V16 samples treated with OGX-225 (10 nM)
# [3] = system: MR42D; test: Cell viability in enzalutamide resistant cell line MR42D (FIG. 5A); conditions: compared to a scrambled control
# Description: (§1) FIGS. 5A and B show cell viability in enzalutamide resistant cell lines MR42D and MR42F, respectively.
# (§2) Tests were performed on androgen sensitive cells line (LNCaP), castrate resistant, enzalutamide-sensitive prostate cancer cell lines V16A and V16D, which were derived from LNCaP cells grown in castrated nude, Matsumoto, H.; Yamamoto, Y.; Shiota, M.; et al. Cancer Res. (2013) 73(16): 5206-17 and Kuruma, H; Matsumoto, H.; Shiota, M. et al. Mol Cancer Ther (2013) 12(5): 567-76; and castrate resistant, enzalutamide-resistant prostate cancer cell lines MR42D, MR49C, and MR49F which were derived from LNCaP cells grown in castrated nude mice treated with enzalutamide at 10 mg/kg PO daily. BPH-1 is an immortal, benign prostatic hyperplasia cell line (Hayward S W, Dahiya R, Cunha G R, et al. (1995). In Vitro Cell Dev Biol Anim 31: 14-24).
# [4] = system: MR42F; test: Cell viability in enzalutamide resistant cell line MR42F (FIG. 5B); conditions: compared to a scrambled control
# Description: as §1, §2
# [5] = system: CRPC cell lines exhibiting resistance to enzaluatamide; test: Killing of enzalutamide-resistant CRPC cell lines (summary statement); conditions: enzalutamide-resistant CRPC cell lines overexpressing IGFBP-2 or IGFBP-5
# Description: In a further aspect of the invention, a method for treatment of prostate cancer is provided in which an agent effective to reduce expression of IGFBP-2 and IGFBP-5 is administered to a patient suffering from prostate cancer, and particularly CRPC, concurrently with the administration of androgen-receptor antagonist treatments. Administration of the antisense concurrently with the androgen-receptor antagonist treatment reduces selective pressure towards resistance within the cancer cell population and therefore can delay onset of androgen-receptor antagonist resistance as well as directly providing a therapeutic benefit by killing resistant cells.
substance,measurement,setting,value
"OGX-225: bispecific second generation antisense oligonucleotide to IGFBP-2 and IGFBP-5; 20 base phosphorothioate 5-10-5 MOE gapmer, 5′-CAGCAGCCGCAGCCCGGCTC-3′ (sugars from the 5' end e5 d10 e5, all C 5-methyl, all phosphorothioate, T or U not given here)",amount of the predominant IGFBP,[1],reduce the amount of the predominant IGFBP in a dose dependent manner
same,IGFBP-2 level,[2],Reduction in the IGFBP-2 level
same,cell viability,[3],substantially reduce the viability
same,cell viability,[4],substantially reduce the viability
same,killing of resistant cells,[5],capable of killing these resistant cells

# From patent US9205102B2, “Method for treatment of castration-resistant prostate cancer” (The University of British Columbia, priority 2013, dated 2015)
